{"source": "the supplement of paper PMC10307832", "experiment_in_all_cases": "relative viability (nuclei count vs DMSO), 5 days (fraction); higher = more cells survive", "key": {"AZ3146 + Decitabine": {"compound": "CN1CCC(CC1)OC2=CC(=C(C=C2)NC3=NC=C4C(=N3)N(C(=O)N4C)C5CCCC5)OC [AZ3146] + Nc1ncn([C@H]2C[C@H](O)[C@@H](CO)O2)c(=O)n1 [Decitabine] (partner 2 µM)", "method_in_brief": "(§1)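 Lung cancer cell lines were seeded in 1536-well plates and dosed by pin tool the next day, with either a single drug or a fixed anchor-drug dose combined with five library-drug doses (not always all listed) spaced in √10 steps. Five days later, one step fixed the cells and stained their nuclei (final 0.05% Triton X-100, 1% formaldehyde, 1 ug/ml Hoechst), and nuclei were counted on 4× images. Relative viability is the nuclei count in treated wells divided by the count in vehicle wells, and each value is the median of duplicate plates.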"}, "AZ3146 + Luminespib": {"compound": "CN1CCC(CC1)OC2=CC(=C(C=C2)NC3=NC=C4C(=N3)N(C(=O)N4C)C5CCCC5)OC [AZ3146] + CCNC(=O)c1noc(-c2cc(C(C)C)c(O)cc2O)c1-c1ccc(CN2CCOCC2)cc1 [Luminespib] (partner 0.01 µM)", "method_in_brief": "as §1"}, "GSK-J4 + Dasatinib": {"compound": "CCOC(=O)CCNc1cc(N2CCc3ccccc3CC2)nc(-c2ccccn2)n1 [GSK-J4] + Cc1nc(Nc2ncc(C(=O)Nc3c(C)cccc3Cl)s2)cc(N2CCN(CCO)CC2)n1 [Dasatinib] (partner 0.075 µM)", "method_in_brief": "as §1"}, "AZ3146 + Alpelisib": {"compound": "CN1CCC(CC1)OC2=CC(=C(C=C2)NC3=NC=C4C(=N3)N(C(=O)N4C)C5CCCC5)OC [AZ3146] + Cc1nc(NC(=O)N2CCC[C@H]2C(N)=O)sc1-c1ccnc(C(C)(C)C(F)(F)F)c1 [Alpelisib] (partner 2 µM)", "method_in_brief": "as §1"}}}
{"cell line": "UMC-11", "values": [{"measurement": "relative viability", "setting": "AZ3146 + Decitabine; first compound 0.08 µM", "value": 0.435}, {"measurement": "relative viability", "setting": "AZ3146 + Decitabine; first compound 0.253 µM", "value": 0.558}, {"measurement": "relative viability", "setting": "AZ3146 + Decitabine; first compound 0.8 µM", "value": 0.454}, {"measurement": "relative viability", "setting": "AZ3146 + Decitabine; first compound 2.53 µM", "value": 0.579}, {"measurement": "relative viability", "setting": "AZ3146 + Decitabine; first compound 8 µM", "value": 0.385}, {"measurement": "relative viability", "setting": "AZ3146 + Luminespib; first compound 0.08 µM", "value": 0.959}, {"measurement": "relative viability", "setting": "AZ3146 + Luminespib; first compound 0.253 µM", "value": 1.2}, {"measurement": "relative viability", "setting": "AZ3146 + Luminespib; first compound 0.8 µM", "value": 1.09}, {"measurement": "relative viability", "setting": "AZ3146 + Luminespib; first compound 2.53 µM", "value": 0.86}, {"measurement": "relative viability", "setting": "AZ3146 + Luminespib; first compound 8 µM", "value": 0.256}, {"measurement": "relative viability", "setting": "GSK-J4 + Dasatinib; first compound 0.5 µM", "value": 0.43}, {"measurement": "relative viability", "setting": "GSK-J4 + Dasatinib; first compound 5 µM", "value": 0.43}, {"measurement": "relative viability", "setting": "GSK-J4 + Dasatinib; first compound 15.81 µM", "value": 0.392}, {"measurement": "relative viability", "setting": "GSK-J4 + Dasatinib; first compound 50 µM", "value": 0.231}, {"measurement": "relative viability", "setting": "AZ3146 + Alpelisib; first compound 0.08 µM", "value": 1.08}, {"measurement": "relative viability", "setting": "AZ3146 + Alpelisib; first compound 0.253 µM", "value": 0.98}, {"measurement": "relative viability", "setting": "AZ3146 + Alpelisib; first compound 0.8 µM", "value": 1.11}, {"measurement": "relative viability", "setting": "AZ3146 + Alpelisib; first compound 2.53 µM", "value": 0.861}, {"measurement": "relative viability", "setting": "AZ3146 + Alpelisib; first compound 8 µM", "value": 0.296}]}
